Measurements: the kinase profiling compilation of Christmann-Franck et al. (2016)

What was measured:
CDK16 (human) = CDK16 (human) (UniProt Q00536); assay: KINOMEscan competition binding; settings: compound 10.0 µM
HIPK1 (human) = HIPK1 (human) (UniProt Q86Z02); assay: KINOMEscan competition binding; settings: compound 10.0 µM
PIM1 (human) = PIM1 (human) (UniProt P11309); assay: KINOMEscan competition binding; settings: compound 10.0 µM
PIM3 (human) = PIM3 (human) (UniProt Q86V86); assay: KINOMEscan competition binding; settings: compound 10.0 µM
PIM2 (human) = PIM2 (human) (UniProt Q9P1W9); assay: KINOMEscan competition binding; settings: compound 10.0 µM
MAP2K3 (human) = MAP2K3 (human) (UniProt P46734); assay: KINOMEscan competition binding; settings: compound 10.0 µM
MYO3B (human) = MYO3B (human) (UniProt Q8WXR4); assay: KINOMEscan competition binding; settings: compound 10.0 µM
TTK (human) [1] = target: TTK (human) (UniProt P33981); assay: SelectScreen, TR FRET
Sequence of TTK (human) (P33981 whole entry, looked up): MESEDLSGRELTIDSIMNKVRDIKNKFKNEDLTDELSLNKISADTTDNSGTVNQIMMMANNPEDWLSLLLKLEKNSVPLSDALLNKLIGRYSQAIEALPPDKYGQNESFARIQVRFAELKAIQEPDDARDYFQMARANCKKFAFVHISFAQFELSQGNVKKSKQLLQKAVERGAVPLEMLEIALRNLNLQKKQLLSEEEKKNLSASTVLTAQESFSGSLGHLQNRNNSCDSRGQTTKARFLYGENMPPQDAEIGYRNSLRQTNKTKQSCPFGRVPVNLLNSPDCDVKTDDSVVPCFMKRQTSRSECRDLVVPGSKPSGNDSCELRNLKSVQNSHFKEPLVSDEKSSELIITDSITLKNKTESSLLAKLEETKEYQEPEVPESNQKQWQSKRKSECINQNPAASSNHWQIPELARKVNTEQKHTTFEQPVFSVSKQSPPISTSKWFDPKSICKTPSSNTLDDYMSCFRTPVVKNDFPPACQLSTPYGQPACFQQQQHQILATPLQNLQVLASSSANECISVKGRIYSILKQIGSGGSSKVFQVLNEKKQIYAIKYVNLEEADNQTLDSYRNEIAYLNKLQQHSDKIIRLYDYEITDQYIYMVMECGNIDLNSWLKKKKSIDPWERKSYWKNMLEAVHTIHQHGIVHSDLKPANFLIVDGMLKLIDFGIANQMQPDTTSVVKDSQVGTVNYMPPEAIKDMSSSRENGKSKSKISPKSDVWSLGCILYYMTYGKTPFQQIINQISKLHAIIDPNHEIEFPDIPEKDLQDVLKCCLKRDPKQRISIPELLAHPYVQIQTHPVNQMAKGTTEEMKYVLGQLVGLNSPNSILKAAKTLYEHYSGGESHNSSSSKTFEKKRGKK

PLK3 (human) = PLK3 (human) (UniProt Q9H4B4); assay: KINOMEscan competition binding; settings: compound 10.0 µM
Sequence of PLK3 (human) (Q9H4B4 whole entry, looked up): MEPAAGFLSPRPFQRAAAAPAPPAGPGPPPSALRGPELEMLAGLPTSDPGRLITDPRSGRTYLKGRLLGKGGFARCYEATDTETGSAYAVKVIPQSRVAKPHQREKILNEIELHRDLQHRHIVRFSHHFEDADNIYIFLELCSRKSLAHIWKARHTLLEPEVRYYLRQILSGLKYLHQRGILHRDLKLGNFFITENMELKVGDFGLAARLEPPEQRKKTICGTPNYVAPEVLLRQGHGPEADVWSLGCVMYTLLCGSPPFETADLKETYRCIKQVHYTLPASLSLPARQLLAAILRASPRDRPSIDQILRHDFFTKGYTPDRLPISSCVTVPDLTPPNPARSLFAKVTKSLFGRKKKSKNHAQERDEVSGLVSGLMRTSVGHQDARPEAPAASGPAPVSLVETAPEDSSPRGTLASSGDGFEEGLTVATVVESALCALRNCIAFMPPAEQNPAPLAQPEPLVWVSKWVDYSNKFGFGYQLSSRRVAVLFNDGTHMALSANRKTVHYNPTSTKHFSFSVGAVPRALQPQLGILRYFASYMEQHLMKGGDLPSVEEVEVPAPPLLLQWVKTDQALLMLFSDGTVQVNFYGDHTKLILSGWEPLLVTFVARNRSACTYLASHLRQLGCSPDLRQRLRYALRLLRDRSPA

MET (human) = MET (human) (UniProt P08581); assay: KINOMEscan competition binding; settings: compound 10.0 µM
DAPK2 (human) = DAPK2 (human) (UniProt Q9UIK4); assay: KINOMEscan competition binding; settings: compound 10.0 µM
STK33 (human) = STK33 (human) (UniProt Q9BYT3); assay: KINOMEscan competition binding; settings: compound 10.0 µM
TTK (human) [2] = target: TTK (human) (UniProt P33981); assay: KINOMEscan competition binding
CAMK2A (human) = CAMK2A (human) (UniProt Q9UQM7); assay: KINOMEscan competition binding; settings: compound 10.0 µM
ALK (human) = ALK (human) (UniProt Q9UM73); assay: KINOMEscan competition binding; settings: compound 10.0 µM
DAPK3 (human) = DAPK3 (human) (UniProt O43293); assay: KINOMEscan competition binding; settings: compound 10.0 µM
DCLK2 (human) = DCLK2 (human) (UniProt Q8N568); assay: KINOMEscan competition binding; settings: compound 10.0 µM
MYLK (human) = MYLK (human) (UniProt Q15746); assay: KINOMEscan competition binding; settings: compound 10.0 µM
DAPK1 (human) = DAPK1 (human) (UniProt P53355); assay: KINOMEscan competition binding; settings: compound 10.0 µM
Sequence of DAPK1 (human) (P53355 whole entry, looked up): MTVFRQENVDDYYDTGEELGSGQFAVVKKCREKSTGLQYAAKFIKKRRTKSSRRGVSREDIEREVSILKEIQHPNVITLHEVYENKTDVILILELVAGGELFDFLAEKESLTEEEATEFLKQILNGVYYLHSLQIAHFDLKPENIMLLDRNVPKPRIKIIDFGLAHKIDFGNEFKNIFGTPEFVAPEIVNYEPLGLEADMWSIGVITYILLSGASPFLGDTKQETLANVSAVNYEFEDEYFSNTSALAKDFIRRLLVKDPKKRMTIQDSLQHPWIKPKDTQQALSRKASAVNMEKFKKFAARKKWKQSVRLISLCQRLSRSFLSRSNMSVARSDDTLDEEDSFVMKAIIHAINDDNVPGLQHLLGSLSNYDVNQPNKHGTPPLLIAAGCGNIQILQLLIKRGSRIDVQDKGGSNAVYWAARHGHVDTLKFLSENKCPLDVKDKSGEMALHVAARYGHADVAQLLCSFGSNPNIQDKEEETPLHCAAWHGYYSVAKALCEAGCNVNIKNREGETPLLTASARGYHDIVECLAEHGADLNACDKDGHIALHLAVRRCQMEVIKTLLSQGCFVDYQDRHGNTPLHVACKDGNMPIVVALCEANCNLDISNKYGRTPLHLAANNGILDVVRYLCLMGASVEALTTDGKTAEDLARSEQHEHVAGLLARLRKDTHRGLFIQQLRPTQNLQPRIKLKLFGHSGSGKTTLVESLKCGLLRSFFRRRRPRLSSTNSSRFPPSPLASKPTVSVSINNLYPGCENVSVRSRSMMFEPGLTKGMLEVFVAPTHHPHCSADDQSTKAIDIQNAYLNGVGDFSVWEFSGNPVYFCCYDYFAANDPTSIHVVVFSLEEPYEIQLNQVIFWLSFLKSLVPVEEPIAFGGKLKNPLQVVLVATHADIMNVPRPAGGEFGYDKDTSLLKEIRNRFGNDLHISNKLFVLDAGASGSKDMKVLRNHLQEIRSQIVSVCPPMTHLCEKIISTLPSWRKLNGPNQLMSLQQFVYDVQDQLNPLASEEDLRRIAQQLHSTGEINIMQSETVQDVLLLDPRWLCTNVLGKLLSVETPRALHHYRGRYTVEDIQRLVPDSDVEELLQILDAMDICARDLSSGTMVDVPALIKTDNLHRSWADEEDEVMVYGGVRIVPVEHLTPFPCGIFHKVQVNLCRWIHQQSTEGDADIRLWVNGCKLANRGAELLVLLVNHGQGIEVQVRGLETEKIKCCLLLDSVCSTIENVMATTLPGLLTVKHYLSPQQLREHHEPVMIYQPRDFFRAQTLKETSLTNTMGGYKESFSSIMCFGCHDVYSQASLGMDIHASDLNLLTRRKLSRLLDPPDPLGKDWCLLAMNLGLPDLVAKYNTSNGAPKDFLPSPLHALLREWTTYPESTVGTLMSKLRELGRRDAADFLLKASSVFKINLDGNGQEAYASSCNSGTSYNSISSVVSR

CLK2 (human) = CLK2 (human) (UniProt P49760); assay: KINOMEscan competition binding; settings: compound 10.0 µM
SLK (human) = SLK (human) (UniProt Q9H2G2); assay: KINOMEscan competition binding; settings: compound 10.0 µM
RPS6KA6 KD2 (human) = RPS6KA6 KD2 (human) (UniProt Q9UK32); assay: KINOMEscan competition binding; settings: compound 10.0 µM
CAMKK1 (human) = CAMKK1 (human) (UniProt Q8N5S9); assay: KINOMEscan competition binding; settings: compound 10.0 µM
RPS6KA2 KD2 (human) = RPS6KA2 KD2 (human) (UniProt Q15349); assay: KINOMEscan competition binding; settings: compound 10.0 µM
Sequence of RPS6KA2 KD2 (human) (Q15349 whole entry, looked up): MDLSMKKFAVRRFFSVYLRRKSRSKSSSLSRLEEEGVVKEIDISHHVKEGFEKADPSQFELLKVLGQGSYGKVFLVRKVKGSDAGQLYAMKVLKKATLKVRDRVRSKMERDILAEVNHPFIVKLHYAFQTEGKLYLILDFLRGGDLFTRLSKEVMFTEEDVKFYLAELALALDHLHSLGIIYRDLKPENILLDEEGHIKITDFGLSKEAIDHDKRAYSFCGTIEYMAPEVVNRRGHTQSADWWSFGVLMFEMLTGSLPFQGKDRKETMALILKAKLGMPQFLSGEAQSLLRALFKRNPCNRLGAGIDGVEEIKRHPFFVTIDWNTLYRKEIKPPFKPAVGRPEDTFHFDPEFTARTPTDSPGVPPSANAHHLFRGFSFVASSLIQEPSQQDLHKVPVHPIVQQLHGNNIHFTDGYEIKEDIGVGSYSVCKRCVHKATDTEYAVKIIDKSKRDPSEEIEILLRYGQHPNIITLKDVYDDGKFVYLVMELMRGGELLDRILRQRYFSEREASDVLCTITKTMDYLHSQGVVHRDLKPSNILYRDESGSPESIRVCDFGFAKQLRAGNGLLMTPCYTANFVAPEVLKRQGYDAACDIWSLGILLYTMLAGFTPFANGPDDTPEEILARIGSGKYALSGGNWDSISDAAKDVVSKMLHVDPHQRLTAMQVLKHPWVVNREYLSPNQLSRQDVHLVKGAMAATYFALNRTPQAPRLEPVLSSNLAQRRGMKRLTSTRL

GAK (human) = GAK (human) (UniProt O14976); assay: KINOMEscan competition binding; settings: compound 10.0 µM
Sequence of GAK (human) (O14976 whole entry, looked up): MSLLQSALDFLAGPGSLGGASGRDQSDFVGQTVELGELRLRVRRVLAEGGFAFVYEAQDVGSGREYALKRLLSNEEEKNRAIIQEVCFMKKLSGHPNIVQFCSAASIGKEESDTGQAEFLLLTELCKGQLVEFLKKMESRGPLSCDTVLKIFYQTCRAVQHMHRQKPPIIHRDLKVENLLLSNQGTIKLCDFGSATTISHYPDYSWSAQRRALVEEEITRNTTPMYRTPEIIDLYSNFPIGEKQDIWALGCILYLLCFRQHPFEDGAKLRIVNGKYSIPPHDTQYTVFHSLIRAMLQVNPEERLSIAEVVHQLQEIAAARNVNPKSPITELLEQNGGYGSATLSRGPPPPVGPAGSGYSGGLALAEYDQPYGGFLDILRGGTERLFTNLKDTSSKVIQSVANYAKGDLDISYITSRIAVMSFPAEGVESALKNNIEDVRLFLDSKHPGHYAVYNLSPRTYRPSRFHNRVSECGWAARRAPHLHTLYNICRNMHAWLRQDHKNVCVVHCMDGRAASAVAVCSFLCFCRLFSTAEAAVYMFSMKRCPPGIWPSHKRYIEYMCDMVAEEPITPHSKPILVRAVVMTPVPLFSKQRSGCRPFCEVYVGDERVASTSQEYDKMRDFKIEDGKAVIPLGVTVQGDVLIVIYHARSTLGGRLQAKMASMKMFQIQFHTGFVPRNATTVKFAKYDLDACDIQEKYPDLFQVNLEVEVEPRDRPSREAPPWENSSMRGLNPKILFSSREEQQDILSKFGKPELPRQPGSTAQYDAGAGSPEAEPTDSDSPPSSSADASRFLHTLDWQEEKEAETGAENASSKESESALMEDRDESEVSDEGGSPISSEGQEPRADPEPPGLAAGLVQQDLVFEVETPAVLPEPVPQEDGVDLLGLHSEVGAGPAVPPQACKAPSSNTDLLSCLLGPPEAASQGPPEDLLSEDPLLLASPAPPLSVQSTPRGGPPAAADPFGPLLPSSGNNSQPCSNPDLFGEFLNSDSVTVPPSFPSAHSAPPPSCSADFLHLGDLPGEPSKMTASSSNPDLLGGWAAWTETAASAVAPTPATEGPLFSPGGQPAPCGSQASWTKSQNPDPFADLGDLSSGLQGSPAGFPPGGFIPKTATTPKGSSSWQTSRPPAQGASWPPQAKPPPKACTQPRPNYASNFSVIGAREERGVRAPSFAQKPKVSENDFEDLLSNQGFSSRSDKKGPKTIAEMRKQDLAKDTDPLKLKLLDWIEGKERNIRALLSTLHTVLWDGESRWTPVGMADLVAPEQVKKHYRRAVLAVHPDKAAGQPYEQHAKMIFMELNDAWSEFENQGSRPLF

PRKD1 (human) = PRKD1 (human) (UniProt Q15139); assay: KINOMEscan competition binding; settings: compound 10.0 µM
CAMKK2 (human) = CAMKK2 (human) (UniProt Q96RR4); assay: KINOMEscan competition binding; settings: compound 10.0 µM
PLK1 (human) = PLK1 (human) (UniProt P53350); assay: KINOMEscan competition binding; settings: compound 10.0 µM
DCLK1 (human) = DCLK1 (human) (UniProt O15075); assay: KINOMEscan competition binding; settings: compound 10.0 µM
PLK4 (human) = PLK4 (human) (UniProt O00444); assay: KINOMEscan competition binding; settings: compound 10.0 µM
MAPK7 (human) = MAPK7 (human) (UniProt Q13164); assay: KINOMEscan competition binding; settings: compound 10.0 µM
TNK1 (human) = TNK1 (human) (UniProt Q13470); assay: KINOMEscan competition binding; settings: compound 10.0 µM
PTK2 (human) = PTK2 (human) (UniProt Q05397); assay: KINOMEscan competition binding; settings: compound 10.0 µM
MINK1 (human) = MINK1 (human) (UniProt Q8N4C8); assay: KINOMEscan competition binding; settings: compound 10.0 µM

## N=C1NC(=O)/C(=C/c2cccc(-c3ccc(S(N)(=O)=O)cc3)c2)S1
CDK16 (human)
  kinase still bound, per cent of control: 32%
HIPK1 (human)
  kinase still bound, per cent of control: 25%
PIM1 (human)
  kinase still bound, per cent of control: 16%
PIM3 (human)
  kinase still bound, per cent of control: 13%
PIM2 (human)
  kinase still bound, per cent of control: 6.2%
MAP2K3 (human)
  kinase still bound, per cent of control: 24%
MYO3B (human)
  kinase still bound, per cent of control: 2.9%

## COc1cc(C(=O)NC2CCN(C)CC2)ccc1Nc1ncc2c(n1)N(C1CCCC1)CC(C)C(=O)N2C (stereo not given)
TTK (human) [1]
  IC50: > 10 µM
PLK3 (human)
  kinase still bound, per cent of control: 2.8%
MET (human)
  kinase still bound, per cent of control: 20%
DAPK2 (human)
  kinase still bound, per cent of control: 21%
STK33 (human)
  kinase still bound, per cent of control: 7%
TTK (human) [2]
  Kd: 3.92 µM
TTK (human) [2]; compound 10.0 µM
  kinase still bound, per cent of control: 9.4%
CAMK2A (human)
  kinase still bound, per cent of control: 20%
ALK (human)
  kinase still bound, per cent of control: 20%
DAPK3 (human)
  kinase still bound, per cent of control: 8.2%
DCLK2 (human)
  kinase still bound, per cent of control: 1.8%
MYLK (human)
  kinase still bound, per cent of control: 0.45%
DAPK1 (human)
  kinase still bound, per cent of control: 7.2%
CLK2 (human)
  kinase still bound, per cent of control: 15%
SLK (human)
  kinase still bound, per cent of control: 2%
RPS6KA6 KD2 (human)
  kinase still bound, per cent of control: 32%
CAMKK1 (human)
  kinase still bound, per cent of control: 33%
RPS6KA2 KD2 (human)
  kinase still bound, per cent of control: 34%
GAK (human)
  kinase still bound, per cent of control: 3.2%
PRKD1 (human)
  kinase still bound, per cent of control: 34%
CAMKK2 (human)
  kinase still bound, per cent of control: 7.6%
PLK1 (human)
  kinase still bound, per cent of control: 22%
DCLK1 (human)
  kinase still bound, per cent of control: 3.4%
PLK4 (human)
  kinase still bound, per cent of control: 16%
MAPK7 (human)
  kinase still bound, per cent of control: 9.6%
TNK1 (human)
  kinase still bound, per cent of control: 24%
PTK2 (human)
  kinase still bound, per cent of control: 17%
MINK1 (human)
  kinase still bound, per cent of control: 33%
